In patent US20230391772A1, “METHODS AND COMPOSITIONS FOR TARGETED PROTEIN DEGRADATION” (Ranok Therapeutics (Hangzhou) Co. Ltd., priority 2020, published 2023) one finds EC50 and IC50 data, which are given here for ten molecules.

For assay [1], the system named is NCI-H358 human non-small cell lung cancer. The experiment in a line: NCI-H358 CCK-8 proliferation assay. In kind it is cell-based. Particulars: NCI-H358 cells, 72 hr. Here is the method:
The following cancer cell lines were employed: BT-474 human breast carcinoma (ATCC, #HTB-20); MIA PaCa-2 human pancreatic carcinoma [2 copies KRAS(G12C)](ATCC, #CRL-1420); NCI-H23 human non-small cell lung cancer [1 copy KRAS(G12C)](ATCC, #CRL-5800); NCI-H358 human non-small cell lung cancer [1 copy KRAS(G12C)](ATCC, #CRL-5807); LU65A human lung carcinoma (Pharmaron, Beijing, China). Cell lines were cultured essentially according to ATCC and Pharmaron recommendations.
Cancer Cell Line Proliferation (CCK-8) Assays
3-fold serial dilutions of each test compound were prepared ranging from 20 μM to 1.02 nM.
% Inhibition=100−(D−B)/(S−B)*100%. • S: Absorbance of cells treated with DMSO • D: Absorbance of compound-treated cells • B: Absorbance of medium with DMSO without cells
On the technique in general: Tetrazolium dyes change colour on reduction, which living cells bring about.

Assay [2] has as its target T1, HSP90a protein (Homo sapiens, UniProt P07900).
T1 construct: purchased BPS Bioscience 50298
The assay can be described thus: HSP90α-binding fluorescent polarization (FP) assay, BODIPY-labeled RNK04010 probe. Particulars: FP competition with RNK04010 (BODIPY-labeled), 5 nM, 300 min at 25° C. The method in brief:
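N-terminal HSP90a construct; tracer 5 nM final (FITC-geldanamycin or BODIPY-RNK04010, a labeled triazolone binder). Compounds 20 μM–5.2 nM, 2.5-fold steps. 25° C, 120 min (FITC) / 300 min (BODIPY). FP readout.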

The target of assay [3] is KRAS(G12C) (Homo sapiens, UniProt P01116, G12C). The assay can be described thus: KRAS(G12C)/SOS1 homogeneous time-resolved fluorescence (HTRF) assay. Also on record: purchased Cisbio 63ADK000CB16PEG. As to conditions: absence of GTP, 4° C. for 3 hr, read-out: KRAS (G12C) binding. The gist of the method: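 Three-hour incubation at 4 °C of 3-fold compound dilutions (lowest 1.02 nM) with KRAS(G12C), SOS1 and detection reagents, GTP absent. Disruption of the KRAS(G12C)/SOS1 complex detected by time-resolved fluorescence.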
(Time-resolved FRET reads energy transfer from a long-lived donor to a nearby acceptor.)

Assay [4] concerns MIA PaCa-2 human pancreatic carcinoma. The experiment in a line: MIA PaCa-2 CCK-8 proliferation assay. In kind it is cell-based. As to conditions: Homo sapiens, MIA PaCa-2, 72 h, MIA PaCa-2 cells. The method in brief: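 Proliferation of mutant-KRAS(G12C) cells (2 copies in MIA PaCa-2, single copy in NCI-H358/NCI-H23) measured with CCK-8 after treatment across 20 μM–1.02 nM; inhibition expressed relative to vehicle-treated wells after subtracting no-cell background.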

KRAS(G12C), sequence (P01116 1-188 isoform P01116-2 G12C): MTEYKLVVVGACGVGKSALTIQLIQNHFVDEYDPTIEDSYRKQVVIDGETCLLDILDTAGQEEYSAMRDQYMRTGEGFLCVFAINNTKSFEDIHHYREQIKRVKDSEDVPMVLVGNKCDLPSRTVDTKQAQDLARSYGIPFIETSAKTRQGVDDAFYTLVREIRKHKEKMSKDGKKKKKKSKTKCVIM

For `C=CC(=O)N1CCN(c2nc(NCCC(=O)N3CCC(Cc4ccc(-n5c(O)nnc5-c5cc(C(C)C)c(O)cc5O)cc4)CC3)nc3c2CCN(c2cc(O)cc4ccccc24)C3)CC1` [Compound 1, 1-(4-(2-((3-(4-(4-(3-(2,4-dihydroxy-5-isopropylphenyl)-5-hydroxy-4H-1,2,4-triazol-4-yl)benzyl)piperidin-1-yl)-3-oxopropyl)amino)-7-(3-hydroxynaphthalen-1-yl)-5,6,7,8-tetrahydropyrido[3,4-d]pyrimidin-4-yl)piperazin-1-yl)prop-2-en-1-one, trifluoroacetic acid], the 50% effective concentration (EC50) in assay [1] is > 1000 nM. Also, the IC50 in assay [2] is 100 to 1000 nM.
For `C=CC(=O)N1CCN(c2nc(NCCC(=O)N3CCN(c4ccc(-n5c(O)nnc5-c5cc(C(C)C)c(O)cc5O)cc4)CC3)nc3c2CCN(c2cc(O)cc4ccccc24)C3)CC1` [Compound 2, 1-(4-(2-((3-(4-(4-(3-(2,4-dihydroxy-5-isopropylphenyl)-5-hydroxy-4H-1,2,4-triazol-4-yl)phenyl)piperazin-1-yl)-3-oxopropyl)amino)-7-(3-hydroxynaphthalen-1-yl)-5,6,7,8-tetrahydropyrido[3,4-d]pyrimidin-4-yl)piperazin-1-yl)prop-2-en-1-one, trifluoroacetic acid] the same measures were > 1000 nM and 100 to 1000 nM.
The corresponding values for `C=CC(=O)N1CCN(c2nc(NCCC(=O)NCCOc3ccc(-n4c(O)nnc4-c4cc(C(C)C)c(O)cc4O)cc3)nc3c2CCN(c2cc(O)cc4ccccc24)C3)CC1` [Compound 3, 3-((4-(4-acryloylpiperazin-1-yl)-7-(3-hydroxynaphthalen-1-yl)-5,6,7,8-tetrahydropyrido[3,4-d]pyrimidin-2-yl)amino)-N-(2-(4-(3-(2,4-dihydroxy-5-isopropylphenyl)-5-hydroxy-4H-1,2,4-triazol-4-yl)phenoxy)ethyl)propanamide, trifluoroacetic acid] are > 1000 nM and 100 to 1000 nM.
Turning to `C=CC(=O)N1CCN(c2nc(NCCC(=O)NCCc3ccc(-n4c(O)nnc4-c4cc(C(C)C)c(O)cc4O)cc3)nc3c2CCN(c2cc(O)cc4ccccc24)C3)CC1` [Compound 4, 3-((4-(4-acryloylpiperazin-1-yl)-7-(3-hydroxynaphthalen-1-yl)-5,6,7,8-tetrahydropyrido[3,4-d]pyrimidin-2-yl)amino)-N-(4-(3-(2,4-dihydroxy-5-isopropylphenyl)-5-hydroxy-4H-1,2,4-triazol-4-yl)phenethyl)propanamide, trifluoroacetic acid], the EC50 in assay [1] is > 1000 nM. In assay [2], this molecule displayed an IC50 of 100 to 1000 nM.
The corresponding values for `C=CC(=O)N1CCN(c2nc(NCCC(=O)NCCOCCOCCOc3ccc(-n4c(O)nnc4-c4cc(CC)c(O)cc4O)cc3)nc3c2CCN(c2cc(O)cc4ccccc24)C3)CC1` [Compound 5, 3-((4-(4-acryloylpiperazin-1-yl)-7-(3-hydroxynaphthalen-1-yl)-5,6,7,8-tetrahydropyrido[3,4-d]pyrimidin-2-yl)amino)-N-(2-(2-(2-(4-(3-(5-ethyl-2,4-dihydroxyphenyl)-5-hydroxy-4H-1,2,4-triazol-4-yl)phenoxy)ethoxy)ethoxy)ethyl)propanamide, trifluoroacetic acid] are > 1000 nM and > 1000 nM.
`C=CC(=O)N1CCN(c2nc(OC[C@@H]3C[C@H](C(=O)N4CCN(Cc5ccc(-n6c(O)nnc6-c6cc(C(C)C)c(O)cc6O)cc5)CC4)CN3C)nc3c2CCN(c2cccc4cccc(Cl)c24)C3)C[C@@H]1CC#N` [Compound 340, 2-[(2S)-4-[7-(8-chloronaphthalen-1-yl)-2-{[(2S,4S)-4-[4-({4-[3-(2,4-dihydroxy-5-isopropylphenyl)-5-hydroxy-1,2,4-triazol-4-yl]phenyl}methyl)piperazine-1-car-bonyl]-1-methylpyrrolidin-2-yl]methoxy}-5H,6H,8H-pyrido[3,4-d]pyrimidin-4-yl]-1-(prop-2-enoyl)piperazin-2-yl]acetonitrile]: the IC50 in assay [3] and in assay [2] was < 100 nM each time. Further, the EC50 in assay [4] is 100 to 1000 nM.
With `C=CC(=O)N1CCN(c2nc(OC[C@H]3CC[C@@H](C(=O)N4CCN(C(=O)C5CCN(Cc6ccc(-n7c(O)nnc7-c7cc(C(C)C)c(O)cc7O)cc6)CC5)CC4)N3C)nc3c2CCN(c2cccc4cccc(Cl)c24)C3)C[C@@H]1CC#N` [Compound 342, 2-[(2S)-4-[7-(8-chloronaphthalen-1-yl)-2-{[(2R,5S)-5-{4-[1-({4-[3-(2,4-dihydroxy-5-isopropylphenyl)-5-hydroxy-1,2,4-triazol-4-yl]phenyl}methyl)piperidine-4-carbonyl]piperazine-1-carbonyl}-1-methylpyrrolidin-2-yl]methoxy}-5H,6H,8H-pyri-do[3,4-d]pyrimidin-4-yl]-1-(prop-2-enoyl)piperazin-2-yl]acetonitrile], the IC50 in assay [3] and in assay [2] was < 100 nM each time. The molecule further registered an EC50 in assay [4] of 100 to 1000 nM.
`C=CC(=O)N1CCN(c2nc(OC[C@@H]3C[C@H](C(=O)N4CCN(CCNC(=O)c5nnc(-c6cc(C(C)C)c(O)cc6O)n5-c5ccccc5)CC4)CN3C)nc3c2CCN(c2cccc4cccc(Cl)c24)C3)C[C@@H]1CC#N` [Compound 343, N-(2-{4-[(3S,5S)-5-({[7-(8-chloronaphthalen-1-yl)-4-[(3S)-3-(cyanomethyl)-4-(pr-op-2-enoyl)piperazin-1-yl]-5H,6H,8H-pyrido[3,4-d]pyrimidin-2-yl]oxy}methyl)-1-methylpyrrolidine-3-carbonyl]piperazin-1-yl}ethyl)-5-(2,4-dihydroxy-5-isopropylphenyl)-4-phenyl-1,2,4-triazole-3-carboxamide]: the IC50 in assay [3] and in assay [2] was < 100 nM each time. In assay [4], the 50% effective concentration (EC50) was in the range of 100 to 1000 nM.
`C=CC(=O)N1CCN(c2nc(OC[C@@H]3C[C@H](C(=O)N4CCN(Cc5ccc(-n6c(C(=O)NCCN7CCN(S(C)(=O)=O)CC7)nnc6-c6cc(C(C)C)c(O)cc6O)cc5)CC4)CN3C)nc3c2CCN(c2cccc4cccc(Cl)c24)C3)C[C@@H]1CC#N` [Compound 344, 4-[4-({4-[(3S,5S)-5-({[7-(8-chloronaphthalen-1-yl)-4-[(3S)-3-(cyanomethyl)-4-(pr-op-2-enoyl)piperazin-1-yl]-5H,6H,8H-pyrido[3,4-d]pyrimidin-2-yl]oxy}methyl)-1-methylpyrrolidine-3-carbonyl]piperazin-1-yl}methyl)phenyl]-5-(2,4-dihydroxy-5-isopropylphenyl)-N-[2-(4-methanesulfonylpiperazin-1-yl)ethyl]-1,2,4-triazole-3-carboxamide]: the IC50 in assay [3] and in assay [2] was < 100 nM throughout. This molecule also yielded a 50% effective concentration (EC50) in assay [4] of 100 to 1000 nM.
For `C=CC(=O)N1CCN(c2nc(OC[C@@H]3C[C@H](C(=O)NCCc4ccc(-n5c(O)nnc5-c5cc(C(C)C)c(O)cc5O)cc4)CN3C)nc3c2CCN(c2cccc4cccc(Cl)c24)C3)C[C@@H]1CC#N` [Compound 345, (3S,5S)-5-({[7-(8-chloronaphthalen-1-yl)-4-[(3S)-3-(cyanomethyl)-4-(prop-2-enoyl)piperazin-1-yl]-5H,6H,8H-pyrido[3,4-d]pyrimidin-2-yl]oxy}methyl)-N-(2-{4-[3-(2,4-dihydroxy-5-isopropylphenyl)-5-hydroxy-1,2,4-triazol-4-yl]phenyl}ethyl)-1-methylpyrrolidine-3-carboxamide], the IC50 in assay [3] and in assay [2] was < 100 nM throughout. Also, in assay [4], the EC50 is 100 to 1000 nM.

In general, EC50 refers to the concentration needed to bring the measured effect to its halfway point. Low readings indicate a more potent agent, high ones a less potent agent.
